Test results: US20070184490A1, “Neuronal nicotinic receptor ligands and their use” (priority 2006, published 2007)

Columns and labels:
[1] = target: T1, α4β2 neuronal nicotinic receptor subtype (Rattus norvegicus, UniProt P09483+P12390); experiment: [3H]-cytisine binding assay, rat brain membrane preparation; conditions: [3H]-cytisine binding site; read-out: binding affinity Ki
T1 construct: Membrane enriched fractions from rat brain minus cerebellum; tissue ABS Inc., Wilmington, DE; host or cells: rat brain minus cerebellum, membrane enriched fractions
Experimental: The method can be accomplished under any suitable binding conditions. […] IC50 and Ki values can be determined from data obtained in the [^3H]-cytisine binding assay.
Binding conditions were modified from the procedures described in Pabreza L A, Dhawan, S, Kellar K J, [^3H]-Cytisine Binding to Nicotinic Cholinergic Receptors in Brain, Mol. Pharm. 39: 9-12, 1991. Membrane enriched fractions from rat brain minus cerebellum (ABS Inc., Wilmington, DE) were slowly thawed at 4° C., washed and resuspended in 30 volumes of BSS-Tris buffer (120 mM NaCl/5 mM KCI/2 mM CaCl2/2 mM MgCl2/50 mM Tris-Cl, pH 7.4, 4° C.). Samples containing 100-200 μg of protein and 0.75 nM [^3H]-cytisine (30 Ci/mmol; Perkin Elmer/NEN Life Science Products, Boston, MA) were incubated in a final volume of 500 μL for 75 minutes at 4° C. Seven log-dilution concentrations of each compound were tested in duplicate. Non-specific binding was determined in the presence of 10 μM (−)-nicotine. Bound radioactivity was isolated by vacuum filtration onto prewetted glass fiber filter plates (Millipore, Bedford, MA) using a 96-well filtration apparatus (Packard Instruments, Meriden, CT) and were then rapidly rinsed with 2 mL of ice-cold BSS buffer (120 mM NaCl/5 mM KCl/2 mM CaCl2/2 mM MgCl2). Packard MicroScint-20® scintillation cocktail (40 μL) was added to each well and radioactivity determined using a Packard TopCount® instrument. The IC50 values were determined by nonlinear regression in Microsoft Excel® software. Ki values were calculated from the IC50s using the Cheng-Prusoff equation, where Ki=IC50/1+[Ligand]/KD].

[2] = test system: adults with ADHD; conditions: transdermal, 32 adults; cited from earlier work

T1 sequence (P09483 31-630): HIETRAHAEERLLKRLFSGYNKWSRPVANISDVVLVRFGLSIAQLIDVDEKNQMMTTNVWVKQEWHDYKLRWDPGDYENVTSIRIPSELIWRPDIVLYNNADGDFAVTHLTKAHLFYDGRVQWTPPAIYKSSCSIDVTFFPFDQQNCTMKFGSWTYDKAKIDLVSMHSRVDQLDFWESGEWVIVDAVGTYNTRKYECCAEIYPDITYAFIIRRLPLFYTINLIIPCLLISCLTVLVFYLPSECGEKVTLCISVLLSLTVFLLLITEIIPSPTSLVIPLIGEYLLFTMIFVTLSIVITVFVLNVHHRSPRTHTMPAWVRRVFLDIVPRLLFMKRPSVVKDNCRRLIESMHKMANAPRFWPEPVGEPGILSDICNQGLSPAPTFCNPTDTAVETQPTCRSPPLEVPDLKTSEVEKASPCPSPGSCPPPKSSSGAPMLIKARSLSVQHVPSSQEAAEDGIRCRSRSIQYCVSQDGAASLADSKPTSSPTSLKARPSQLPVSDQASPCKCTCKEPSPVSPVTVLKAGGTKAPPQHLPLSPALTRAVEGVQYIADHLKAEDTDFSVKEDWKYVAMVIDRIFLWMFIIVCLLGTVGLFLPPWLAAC
T1 sequence (P12390 25-500): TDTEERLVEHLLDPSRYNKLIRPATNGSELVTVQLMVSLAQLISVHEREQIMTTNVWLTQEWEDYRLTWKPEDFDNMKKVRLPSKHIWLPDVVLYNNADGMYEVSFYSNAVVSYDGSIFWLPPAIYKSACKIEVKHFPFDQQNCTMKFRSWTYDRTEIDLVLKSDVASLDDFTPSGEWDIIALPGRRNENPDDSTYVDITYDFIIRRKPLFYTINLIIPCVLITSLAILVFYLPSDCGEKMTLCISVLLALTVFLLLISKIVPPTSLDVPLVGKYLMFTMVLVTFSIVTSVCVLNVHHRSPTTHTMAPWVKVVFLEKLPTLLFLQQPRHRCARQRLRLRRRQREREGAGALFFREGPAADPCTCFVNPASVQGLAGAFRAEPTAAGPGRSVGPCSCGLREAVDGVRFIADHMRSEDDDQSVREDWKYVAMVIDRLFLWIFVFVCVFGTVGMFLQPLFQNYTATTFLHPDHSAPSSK

With `Clc1ccc(-c2cc(OC[C@@H]3CCCN3)cnc2Cl)cc1` the Ki [1] was 0.04 nM.
For `Cc1cc([C@@H]2CCCN2C)on1` [ABT-418], the “efficacy in treating ADHD” value [2] is listed as “effective in treating ADHD”.
`c1cncc(N2CC[C@@H]3CNC[C@@H]32)c1` [(R,R)-1-(pyridin-3-yl)-octahydro-pyrrolo[3,4-b]pyrrole] gave a Ki [1] of 8.8 nM.
`c1ccc2ncc(N3CC4CNCC4C3)cc2c1` (stereo not shown) gave a Ki [1] of 1.5 nM.
